Columns and labels:
[1] = system: Human breast tumor SUM149 cells; assay: Inhibition of tumor cell growth (alamar blue), SUM149; assay type: cell-based; details: 120 h, calculated on the basis of cell growth inhibition, day 5, alamar blue, read-out: IC50 for the inhibition of SUM149 tumor cells growth
Description: (§1) All biological experiments (Examples 2 to 9) have been performed with recommended cell line specific culture medium. For SUM149 and L226, culture medium is supplemented with 10% Fetal Calf Serum. For HME-1 and MCF-10A, culture medium is supplemented with 5% Horse Serum.
Human breast tumor SUM149 cells (Inflammatory Breast Cancer (IBC) of basal subtype) were plated in a 96 well plate at 3000 cells/100 μL at 37° C. in 5% CO2. Compounds 1, 3, 4, 5, 6, 7, 8, 9, 10, 11, 12, 13, 14 at 10 μM were added at day 0 and day 3. The number of viable cells was determined in triplicate at day 5 by incubating 10 μL of the alamar blue staining solution for 2 hours at 37° C. (FIG. 1).
(§2) Human breast tumor SUM149 cells were plated in a 96 well plate at 3000 cells/100 μL at 37° C. in 5% CO2. Serial dilutions of drugs (compounds 1, 3 or 4) ranging from 20 μM to 300 nM were added at day 0 and day 3. The number of viable cells was determined in triplicate at day 5 by incubating 10 μL of the alamar blue staining solution for 2 hours at 37° C. (FIG. 2).
IC50 values of compounds 1-14 for the inhibition of SUM149 and L226 tumor cells growth were measured (according to the experimental procedure of Examples 2 and 3):
Human breast tumor SUM149 cells were plated in a 96 well plate at 3000 cells/100 μL at 37° C. in 5% CO2 in recommended medium containing 10% FCS or in synthetic medium without FCS. Serial dilutions of drug (compound 4) ranging from 10 μM to 0.16 μM were added at day 0 and day 3. The number of viable cells was determined in triplicate at day 5 by incubating 10 μL of the alamar blue staining solution for 2 hours at 37° C. (FIG. 11). The […] in recommended medium containing 10% FCS was measured at 2 μM, while it was measured at 0.6 μM without FCS.

[2] = system: Human breast tumor L226 cells; assay: Inhibition of tumor cell growth (alamar blue), L226; assay type: cell-based; details: 120 h, calculated on the basis of cell growth inhibition, day 5, alamar blue
Description: as §1
Human breast tumor L226 cells (Inflammatory Breast Cancer (IBC) of ERB-B2 subtype) were plated in a 96 well plate at 3000 cells/100 μL at 37° C. in 5% CO2. Serial dilutions of drugs (compounds 1, 3 or 4) ranging from 20 μM to 300 nM were added at day 0 and day 3. The number of viable cells was determined in triplicate at day 5 by incubating 10 μL of the alamar blue staining solution for 2 hours at 37° C. (FIG. 3).
IC50 values of compounds 1-14 for the inhibition of SUM149 and L226 tumor cells growth were measured (according to the experimental procedure of Examples 2 and 3): […]

[3] = system: Human normal mammary epithelial MCF-10A cells; assay: Effect on growth of normal cells (alamar blue), MCF-10A; assay type: cell-based; details: calculated on the basis of cell growth inhibition
Description: as §1
as §2, with “normal mammary epithelial MCF-10A” for “breast tumor SUM149”, “5).” for “2).”
(§3) IC50 values of compounds 1-14 for the inhibition of MCF-10A and HME-1 normal cells growth were also measured (according to the experimental procedure of Examples 4 and 5): […]

[4] = system: Human normal mammary epithelial HME-1 cells; assay: Effect on growth of normal cells (alamar blue), HME-1; assay type: cell-based; details: HME1, calculated on the basis of cell growth inhibition
Description: as §1
as §2, with “normal mammary epithelial HME-1” for “breast tumor SUM149”, “4).” for “2).”
as §3

[5] = system: caspase-3 and caspase-7 in SUM149 cells; assay: Caspase 3/7 activation (Caspase-Glo 3/7) in SUM149 tumor cells; assay type: cell-based; details: Homo sapiens, R=RLU at 20 μM/RLU at 0 μM, 24 h, read-out: Caspase 3/7 activation R (RLU fold increase from untreated cells)
Description: (§4) Human breast tumor SUM149 cells were plated in a 96 well plate at 10000 cells/100 μL at 37° C. in 5% CO2. Serial dilutions of drugs (compounds 1, 3 or 4) ranging from 20 μM to 300 nM were added at day 0. Active caspase-3 and caspase-7 were measured in triplicate after 24 h treatment by incubating 50 μL of the Caspase-Glo 3/7 reagent for 60 min at 25° C. This reagent containing the proluminescent tetrapeptide sequence DEVD in a cell lysis buffer (Promega) (FIG. 6).
(§5) Caspase 3/7 activation in SUM149 and L226 tumor cells was measured.
(§6) The calculated values R correspond to Relative Luminescence Units (RLU) fold increase from untreated cells (R=RLU at 20 μM/RLU at 0 μM).

[6] = system: caspase-3 and caspase-7 in L226 cells; assay: Caspase 3/7 activation (Caspase-Glo 3/7) in L226 tumor cells; assay type: cell-based; details: Homo sapiens, R=RLU at 20 μM/RLU at 0 μM, 24 h, read-out: Caspase 3/7 activation R (RLU fold increase from untreated cells)
Description: as §4, with “L226” for “SUM149”, “7).” for “6).”
as §5, §6

[7] = system: caspase-3 and caspase-7 in MCF-10A cells; assay: Caspase 3/7 activation (Caspase-Glo 3/7) in MCF-10A normal cells; assay type: cell-based; details: Homo sapiens, R=RLU at 20 μM/RLU at 0 μM, 24 h, read-out: Caspase 3/7 activation R (RLU fold increase from untreated cells)
Description: as §4, with “normal mammary epithelial MCF-10A” for “breast tumor SUM149”, “9).” for “6).”
as §6
(§7) Caspase 3/7 activation in MCF-10A and HME-1 normal cells was also measured.

[8] = system: caspase-3 and caspase-7 in HME-1 cells; assay: Caspase 3/7 activation (Caspase-Glo 3/7) in HME-1 normal cells; assay type: cell-based; details: Homo sapiens, HME1, R=RLU at 20 μM/RLU at 0 μM, 24 h, read-out: Caspase 3/7 activation R (RLU fold increase from untreated cells)
Description: as §4, with “normal mammary epithelial HME-1” for “breast tumor SUM149”, “8).” for “6).”
as §6, §7

[9] = system: Human breast tumor SUM149 cells; assay: Annexin V/7-AAD apoptosis with or without Z-VAD-FMK; assay type: cell-based; details: 2.5 to 20 μM, 48 h, with Z-VAD-FMK pan-caspases inhibitor
Description: Human breast tumor SUM149 cells were plated in dishes at a concentration of 10^6 cells/[…] Cells were treated with compound 3 or compound 4 (2.5 to 20 μM) for 48 h, with or without Z-VAD-FMK, a pan-caspases inhibitor. Cells were double stained with annexinV-FITC and 7-AAD to measure cell apoptosis.

[10] = system: tumors derived from MMTC-ErbB2/neu mice; assay: TUNEL assay of tumor apoptosis in MMTV-ErB2/Neu mice; assay type: in vivo; details: 100 mg/kg for 30 days
Description: DNA fragmentation in apoptotic cells was analyzed by the TUNEL assay (ApopTag detection kit, Millipore) as recommended by the manufacturer.
Briefly, 4 μm sections of paraffin-embedded fixed tissue from tumors derived from MMTC-ErbB2/neu mice treated with vehicle or with Compound 12, 4 or 8 (100 mg/kg) for 30 days, were deparaffined with successive histolemon and ethanol washes, then treated with 20 μg/mL proteinase K for 15 min at room temperature. Endogenous peroxidise was quenched with 3% hydrogen peroxide. […] Coloration was performed using the diaminobenzidine mixed substrate (Dako). Counterstaining was done with a solution of 1% methyl green for 5 min at room temperature. After distilled water and N-butanol washes, specimens were mounted in Pertex medium (CellPath). Observations were made using the Leica DMD108 digital microimaging device (Leica Microsystems GmbH).

Row | Structure (SMILES) | IC50 [1] [µM] | IC50 [2] [µM] | IC50 [3] [µM] | IC50 [4] [µM] | fold induction at 20 µM [5] | fold induction at 20 µM [6] | fold induction at 20 µM [7] | fold induction at 20 µM [8] | effect of Z-VAD treatment on compound induced apoptosis (Annexin V positive cells) [9] | percentage of cells having TdT positive nuclei in tumors [10]
1 | CC(C)c1ccc(S(=O)(=O)N2CCSC(C)(C)[C@@H]2C(=O)NO)cc1 [Compound 3, (3S)—N-hydroxy-4-[(4-isopropylphenyl)sulfonyl]-2,2-dimethyl-3-thiomorpholine carboxamide] | 2.5 | 2.5 | > 20 | > 20 | 6.3 | 2.1 | 1 | 1 | fully impaired | 
2 | CCc1ccc(S(=O)(=O)N2CCSC(C)(C)[C@@H]2C(=O)NO)cc1 [Compound 8, (3S)—N-hydroxy-4-[(4-ethylphenyl)sulfonyl]-2,2-dimethyl-3-thiomorpholine carboxamide] | 7.5 | 5 | > 20 | > 20 | 5.7 | 2.3 |  |  |  | rare

— US9193699B2, “Apoptosis inducing compounds” (INSTITUT NATIONAL DE LA SANTE ET DE LA RECHERCHE MEDICALE …, priority 2011, dated 2015)
